# Legend:
# [1] = Log P by HPLC on reversed phase columns (EEC directive 79/831 Annex V.A8), acidic range; format: physicochemical; settings: for chromatographic logP: LC-UV, acidic range, 0.1% formic acid in water and acetonitrile (gradient 10% to 95% acetonitrile)
# Procedure: Measurement of Log P values was performed according to EEC directive 79/831 Annex V.A8 by HPLC (High Performance Liquid Chromatography) on reversed phase columns with the following method: ^[a] Log P value is determined by measurement of LC-UV, in an acidic range, with 0.1% formic acid in water and acetonitrile as eluent (linear gradient from 10% acetonitrile to 95% acetonitrile).
# Calibration was done with straight-chain alkan2-ones (with 3 to 16 carbon atoms) with known Log P values (measurement of Log P values using retention times with linear interpolation between successive alka-nones). Lambda-max-values were determined using UV-spectra from 200 nm to 400 nm and the peak values of the chromatographic signals.
# Calibration was done with straight-chain alkan2-ones (with 3 to 16 carbon atoms) with known Log P values (measurement of Log P values using retention times with linear interpolation between successive alkanones). Lambda-max-values were determined using UV-spectra from 200 nm to 400 nm and the peak values of the chromatographic signals.
# [2] = test system: Septoria tritici; test: In vivo preventive test on Septoria tritici (leaf spot on wheat), DMSO/acetone/Tween 80; settings: wheat plants; for Efficacy: dose 10 ppm, comparison table; for protection (in words): dose of 10 ppm of active ingredient
# Procedure: (§1) The active ingredients are made soluble and homogenized in a mixture of Dimethyl sulfoxide/Acetone//Tween® 80 and then diluted in water to the desired concentration.
# The young plants of wheat are treated by spraying the active ingredient prepared as described above. Control plants are treated only with an aqueous solution of Acetone/Dimethyl sulfoxide/Tween® 80.
# After 24 hours, the plants are contaminated by spraying the leaves with an aqueous suspension of Septoria tritici spores. The contaminated wheat plants are incubated for 72 hours at 18° C. and at 100% relative humidity and then for 21 days at 20° C. and at 90% relative humidity.
# The test is evaluated 24 days after the inoculation. 0% means an efficacy which corresponds to that of the control plants while an efficacy of 100% means that no disease is observed.
# [3] = test system: Pyrenophora teres; test: In vivo preventive test on Pyrenophora teres (net blotch on barley); settings: barley plants; for Efficacy: comparison table
# Procedure: as §1
# The young plants of barley are treated by spraying the active ingredient prepared as described above. Control plants are treated only with an aqueous solution of Acetone/Dimethyl sulfoxide/Tween® 80.
# After 24 hours, the plants are contaminated by spraying the leaves with an aqueous suspension of Pyreoophora teres spores. The contaminated barley plants are incubated for 48 hours at 20° C. and at 100% relative humidity and then for 12 days at 20° C. and at 70-80% relative humidity.
# The test is evaluated 14 days after the inoculation. 0% means an efficacy which corresponds to that of the control plants while an efficacy of 100% means that no disease is observed.
# [4] = test system: Sphaerotheca fuliginea; test: In vivo preventive test on Sphaerotheca fuliginea (powdery mildew on cucurbits); settings: gherkin plants; for Efficacy: dose 10 ppm, comparison table; for protection (in words): dose of 10 ppm of active ingredient
# Procedure: as §1
# (§2) The young plants of gherkin are treated by spraying the active ingredient prepared as described above. Control plants are treated only with an aqueous solution of Acetone/Dimethyl sulfoxide/Tween® 80.
# After 24 hours, the plants are contaminated by spraying the leaves with an aqueous suspension of Sphaerotheca fuliginea spores. The contaminated gherkin plants are incubated for 72 hours at 18° C. and at 100% relative humidity and then for 12 days at 20° C. and at 70-80% relative humidity.
# The test is evaluated 15 days after the inoculation. 0% means an efficacy which corresponds to that of the control plants while an efficacy of 100% means that no disease is observed.
# [5] = test system: Botrytis cinerea; test: In vivo preventive test on Botrytis cinerea (grey mould); settings: gherkin plants
# Procedure: as §1, §2
# After 24 hours, the plants are contaminated by spraying the leaves with an aqueous suspension of Botrytis cinerea spores. The contaminated gherkin plants are incubated for 4 to 5 days at 17° C. and at 90% relative humidity.
# The test is evaluated 4 to 5 days after the inoculation. 0% means an efficacy which corresponds to that of the control plants while an efficacy of 100% means that no disease is observed.
# [6] = dose of 10 ppm of active ingredient
# [7] = dose of 100 ppm of active ingredient
smiles,measurement,setting,value
CCCC1CC(C)(C)c2cccc(NC(=O)c3cccnc3C(F)F)c21 (racemic) [Example 5],Log P[a],[1],3.96^[a]
"CCCC1CC(C)(C)c2cccc(NC(=O)c3cccnc3C(F)F)c21 (single isomer, unassigned) [Example 7]",Log P[a],[1],3.96^[a]
CC(C)C1CC(C)(C)c2cccc(NC(=O)c3cccnc3C(F)F)c21 (racemic) [Example 1],Log P[a],[1],3.87^[a]
"CCC1CC(C)(C)c2cccc(NC(=O)c3cccnc3C(F)F)c21 (single isomer, unassigned) [Example 3]",Log P[a],[1],3.62^[a]
CC(C)C1CC(C)(C)c2cccc(N)c21 (racemic) [Example III-01],Log P[a],[1],3.37^[a]
"CCC1CC(C)(C)c2cccc(NC(=O)c3cccnc3Cl)c21 (stereo not drawn) [2-chloro-N-(3-ethyl-1,1-dimethyl-2,3-dihydro-1H-inden-4-yl)nicotinamide, reference compound]",Efficacy,[2],50%
same,protection (in words),[2],moderate protection
same,Efficacy,[3]; dose 10 ppm,0%
same,Efficacy,[3]; dose 100 ppm,71%
same,protection (in words),[3]; [6],no protection at all
same,protection (in words),[3]; [7],moderate protection
same,Efficacy,[4],44%
same,protection (in words),[4],weak protection
"CC(C)CC1CC(C)(C)c2cccc(NC(=O)c3cccnc3C(F)F)c21 (single isomer, unassigned) [Example 11]",Log P[a],[1],4.27^[a]
CCCC1CC(C)(C)c2cccc(NC(=O)c3c(F)ccnc3C(F)F)c21 (racemic) [Example 15],Log P[a],[1],4.21^[a]
"CCC1CC(C)(C)c2cccc(NC(=O)c3cccnc3C(F)F)c21 (single isomer, unassigned) [Example 4]",Log P[a],[1],3.62^[a]
CCCC1CC(C)(C)c2cccc(N)c21 (racemic) [Example III-03],Log P[a],[1],3.60^[a]
"CCCC1CC(C)(C)c2cccc(NC(=O)c3cccnc3C(F)F)c21 (single isomer, unassigned) [Example 6]",Log P[a],[1],3.96^[a]
CCC1CC(C)(C)c2cccc(NC(=O)c3c(F)ccnc3C(F)F)c21 (racemic) [Example 14],Log P[a],[1],3.87^[a]
"CCC1CC(C)(C)c2cccc(N)c21 (stereo not drawn) [Example III-02, 3-ethyl-1,1-dimethylindan-4-amine]",chromatographic logP,[1],2.86
"CC(C)CC1CC(C)(C)c2cccc(NC(=O)c3cccnc3C(F)F)c21 (single isomer, unassigned) [Example 12]",Log P[a],[1],4.27^[a]
CCCC1CC(C)(C)c2cccc(NC(=O)c3ccc(Cl)nc3C(F)F)c21 (racemic) [Example 8],Log P[a],[1],4.65^[a]
CC(C)CC1CC(C)(C)c2cccc(NC(=O)c3cccnc3C(F)F)c21 (racemic) [Example 10],Log P[a],[1],4.27^[a]
"CCC1CC(C)(C)c2cccc(NC(=O)c3cccnc3C(F)F)c21 (stereo not drawn) [Example 2, 2-(difluoromethyl)-N-(3-ethyl-1,1-dimethyl-2,3-dihydro-1H-inden-4-yl)nicotinamide]",Efficacy,[2],97%
same,protection (in words),[2],very good protection
same,Efficacy,[3]; dose 10 ppm,64%
same,Efficacy,[3]; dose 100 ppm,93%
same,protection (in words),[3]; [6],moderate protection
same,protection (in words),[3]; [7],very good protection
same,Efficacy,[4],100%
same,protection (in words),[4],total protection
same,chromatographic logP,[1],3.62
same,Efficacy,"[5]; dose 100 ppm, comparison table",93%
same,protection (in words),[5]; [7],very good protection
CC(C)CC1CC(C)(C)c2cccc(NC(=O)c3c(F)ccnc3C(F)F)c21 (racemic) [Example 13],Log P[a],[1],4.54^[a]
CC(C)CC1CC(C)(C)c2cccc(N)c21 (racemic) [Example III-04],Log P[a],[1],4.18^[a]

# From patent US10349656B2, “Difluoromethyl-nicotinic-indanyl carboxamides” (BAYER CROPSCIENCE AKTIENGESELLSCHAFT, priority 2014, dated 2019)
